Measurements as given in ChEMBL document CHEMBL4840313, “Bioisosteric replacements of the indole moiety for the development of a potent and selective PI3Kδ inhibitor: Design, synthesis and biological evaluation” (Eur J Med Chem, 2021).
pIC50: −log10 of the molar value.

Key:
[1] = target: T1, Phosphatidylinositol 4,5-bisphosphate 3-kinase catalytic subunit delta isoform (Homo sapiens, UniProt O00329); test: Inhibition of PI3Kdelta (unknown origin) using PIP2 as substrate in presence of ATP measured after 60 mins by ADP-Glo assay
T1 sequence (O00329 whole entry): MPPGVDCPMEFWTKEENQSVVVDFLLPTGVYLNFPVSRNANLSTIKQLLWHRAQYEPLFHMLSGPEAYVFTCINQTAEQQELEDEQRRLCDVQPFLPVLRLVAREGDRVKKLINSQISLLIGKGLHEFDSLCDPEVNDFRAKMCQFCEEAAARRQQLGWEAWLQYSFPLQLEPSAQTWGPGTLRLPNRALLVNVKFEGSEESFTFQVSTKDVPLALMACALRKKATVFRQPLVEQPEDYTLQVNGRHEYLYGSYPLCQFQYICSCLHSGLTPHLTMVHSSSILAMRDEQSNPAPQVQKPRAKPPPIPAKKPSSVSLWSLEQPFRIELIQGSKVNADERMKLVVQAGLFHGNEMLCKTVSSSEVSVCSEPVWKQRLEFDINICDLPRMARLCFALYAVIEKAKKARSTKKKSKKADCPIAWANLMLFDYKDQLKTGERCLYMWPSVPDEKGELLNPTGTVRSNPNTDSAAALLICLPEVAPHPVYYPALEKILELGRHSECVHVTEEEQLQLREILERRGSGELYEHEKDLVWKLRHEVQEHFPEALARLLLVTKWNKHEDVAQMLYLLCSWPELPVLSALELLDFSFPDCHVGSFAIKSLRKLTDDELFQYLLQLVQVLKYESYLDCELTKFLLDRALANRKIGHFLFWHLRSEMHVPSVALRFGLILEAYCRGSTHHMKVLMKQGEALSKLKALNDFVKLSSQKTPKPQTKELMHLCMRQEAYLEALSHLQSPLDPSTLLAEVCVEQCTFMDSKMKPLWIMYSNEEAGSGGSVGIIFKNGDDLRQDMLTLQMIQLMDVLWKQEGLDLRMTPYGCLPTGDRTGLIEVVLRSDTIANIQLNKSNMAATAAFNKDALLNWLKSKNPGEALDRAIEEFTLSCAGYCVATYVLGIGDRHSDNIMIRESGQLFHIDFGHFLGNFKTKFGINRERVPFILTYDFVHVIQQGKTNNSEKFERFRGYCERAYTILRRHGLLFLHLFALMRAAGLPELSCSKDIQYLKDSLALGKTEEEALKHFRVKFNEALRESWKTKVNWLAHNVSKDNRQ

[2] = Induction of apoptosis in human MOLM16 cells assessed as early apoptotic cells at 2 uM incubated for 48 hrs by Annexin V and propidium iodide Staining based assay (reference value: 16.4 %); assay type: functional, MOLM-16
[3] = Induction of cell cycle arrest in human MOLM16 cells assessed as accumulation at subG1 phase at 2 uM incubated for 24 hrs by propidium iodide /RNase staining based flow cytometry(Rvb =4.02 %); assay type: functional, MOLM-16
[4] = Induction of apoptosis in human MOLM16 cells assessed as viable cells at 5 uM incubated for 48 hrs by Annexin V and propidium iodide Staining based assay (reference value: 76.3 %); assay type: functional, MOLM-16; settings: read-out: Activity
[5] = Induction of cell cycle arrest in human MOLM16 cells assessed as accumulation at S phase at 5 uM incubated for 24 hrs by propidium iodide /RNase staining based flow cytometry(Rvb =31.8 %); assay type: functional, MOLM-16
[6] = Induction of apoptosis in human MOLM16 cells assessed as late apoptotic cells at 1 uM incubated for 48 hrs by Annexin V and propidium iodide Staining based assay (reference value: 6.77 %); assay type: functional, MOLM-16
[7] = Induction of apoptosis in human MOLM16 cells assessed as late apoptotic cells at 2 uM incubated for 48 hrs by Annexin V and propidium iodide Staining based assay (reference value: 6.77 %); assay type: functional, MOLM-16
[8] = Induction of cell cycle arrest in human MOLM16 cells assessed as accumulation at S phase at 1 uM incubated for 24 hrs by propidium iodide /RNase staining based flow cytometry(Rvb =31.8 %); assay type: functional, MOLM-16
[9] = Induction of apoptosis in human MOLM16 cells assessed as early apoptotic cells at 5 uM incubated for 48 hrs by Annexin V and propidium iodide Staining based assay (reference value: 16.4 %); assay type: functional, MOLM-16
[10] = Induction of cell cycle arrest in human MOLM16 cells assessed as accumulation at G1 phase at 1 uM incubated for 24 hrs by propidium iodide /RNase staining based flow cytometry(Rvb =46.8 %); assay type: functional, MOLM-16
[11] = Induction of cell cycle arrest in human MOLM16 cells assessed as accumulation at subG1 phase at 1 uM incubated for 24 hrs by propidium iodide /RNase staining based flow cytometry(Rvb =4.02 %); assay type: functional, MOLM-16
[12] = Induction of cell cycle arrest in human MOLM16 cells assessed as accumulation at G1 phase at 2 uM incubated for 24 hrs by propidium iodide /RNase staining based flow cytometry(Rvb =46.8 %); assay type: functional, MOLM-16
[13] = Induction of cell cycle arrest in human MOLM16 cells assessed as accumulation at G2 phase at 2 uM incubated for 24 hrs by propidium iodide /RNase staining based flow cytometry(Rvb =14.7 %); assay type: functional, MOLM-16
[14] = Induction of apoptosis in human MOLM16 cells assessed as viable cells at 1 uM incubated for 48 hrs by Annexin V and propidium iodide Staining based assay (reference value: 76.3 %); assay type: functional, MOLM-16; settings: read-out: Activity
[15] = Induction of cell cycle arrest in human MOLM16 cells assessed as accumulation at G2 phase at 5 uM incubated for 24 hrs by propidium iodide /RNase staining based flow cytometry(Rvb =14.7 %); assay type: functional, MOLM-16
[16] = Induction of apoptosis in human MOLM16 cells assessed as necrotic cells at 2 uM incubated for 48 hrs by Annexin V and propidium iodide Staining based assay (reference value: 0.44 %); assay type: functional, MOLM-16
[17] = Induction of cell cycle arrest in human MOLM16 cells assessed as accumulation at G1 phase at 5 uM incubated for 24 hrs by propidium iodide /RNase staining based flow cytometry(Rvb =46.8 %); assay type: functional, MOLM-16
[18] = Induction of apoptosis in human MOLM16 cells assessed as early apoptotic cells at 1 uM incubated for 48 hrs by Annexin V and propidium iodide Staining based assay (reference value: 16.4 %); assay type: functional, MOLM-16
[19] = Induction of apoptosis in human MOLM16 cells assessed as viable cells at 2 uM incubated for 48 hrs by Annexin V and propidium iodide Staining based assay (reference value: 76.3 %); assay type: functional, MOLM-16; settings: read-out: Activity
[20] = Induction of apoptosis in human MOLM16 cells assessed as late apoptotic cells at 5 uM incubated for 48 hrs by Annexin V and propidium iodide Staining based assay (reference value: 6.77 %); assay type: functional, MOLM-16
[21] = Induction of cell cycle arrest in human MOLM16 cells assessed as accumulation at G2 phase at 1 uM incubated for 24 hrs by propidium iodide /RNase staining based flow cytometry(Rvb =14.7 %); assay type: functional, MOLM-16
[22] = Induction of apoptosis in human MOLM16 cells assessed as necrotic cells at 1 uM incubated for 48 hrs by Annexin V and propidium iodide Staining based assay (reference value: 0.44 %); assay type: functional, MOLM-16
[23] = Induction of apoptosis in human MOLM16 cells assessed as necrotic cells at 5 uM incubated for 48 hrs by Annexin V and propidium iodide Staining based assay (reference value: 0.44 %); assay type: functional, MOLM-16
[24] = Induction of cell cycle arrest in human MOLM16 cells assessed as accumulation at S phase at 2 uM incubated for 24 hrs by propidium iodide /RNase staining based flow cytometry(Rvb =31.8 %); assay type: functional, MOLM-16
[25] = Induction of cell cycle arrest in human MOLM16 cells assessed as accumulation at subG1 phase at 5 uM incubated for 24 hrs by propidium iodide /RNase staining based flow cytometry(Rvb =4.02 %); assay type: functional, MOLM-16
[26] = target: Phosphatidylinositol 4,5-bisphosphate 3-kinase catalytic subunit gamma isoform (Homo sapiens, UniProt P48736); test: Inhibition of PI3Kgamma (unknown origin) using PIP2 as substrate in presence of ATP measured after 60 mins by ADP-Glo assay
[27] = target: Phosphatidylinositol 4,5-bisphosphate 3-kinase catalytic subunit beta isoform (Homo sapiens, UniProt P42338); test: Inhibition of PI3Kbeta (unknown origin) using PIP2 as substrate in presence of ATP measured after 60 mins by ADP-Glo assay
[28] = target: Phosphatidylinositol 4,5-bisphosphate 3-kinase catalytic subunit alpha isoform (Homo sapiens, UniProt P42336); test: Inhibition of PI3Kalpha (unknown origin) using PIP2 as substrate in presence of ATP measured after 60 mins by ADP-Glo assay
Sequence of Phosphatidylinositol 4,5-bisphosphate 3-kinase catalytic subunit alpha isoform (P42336 whole entry, canonical isoform): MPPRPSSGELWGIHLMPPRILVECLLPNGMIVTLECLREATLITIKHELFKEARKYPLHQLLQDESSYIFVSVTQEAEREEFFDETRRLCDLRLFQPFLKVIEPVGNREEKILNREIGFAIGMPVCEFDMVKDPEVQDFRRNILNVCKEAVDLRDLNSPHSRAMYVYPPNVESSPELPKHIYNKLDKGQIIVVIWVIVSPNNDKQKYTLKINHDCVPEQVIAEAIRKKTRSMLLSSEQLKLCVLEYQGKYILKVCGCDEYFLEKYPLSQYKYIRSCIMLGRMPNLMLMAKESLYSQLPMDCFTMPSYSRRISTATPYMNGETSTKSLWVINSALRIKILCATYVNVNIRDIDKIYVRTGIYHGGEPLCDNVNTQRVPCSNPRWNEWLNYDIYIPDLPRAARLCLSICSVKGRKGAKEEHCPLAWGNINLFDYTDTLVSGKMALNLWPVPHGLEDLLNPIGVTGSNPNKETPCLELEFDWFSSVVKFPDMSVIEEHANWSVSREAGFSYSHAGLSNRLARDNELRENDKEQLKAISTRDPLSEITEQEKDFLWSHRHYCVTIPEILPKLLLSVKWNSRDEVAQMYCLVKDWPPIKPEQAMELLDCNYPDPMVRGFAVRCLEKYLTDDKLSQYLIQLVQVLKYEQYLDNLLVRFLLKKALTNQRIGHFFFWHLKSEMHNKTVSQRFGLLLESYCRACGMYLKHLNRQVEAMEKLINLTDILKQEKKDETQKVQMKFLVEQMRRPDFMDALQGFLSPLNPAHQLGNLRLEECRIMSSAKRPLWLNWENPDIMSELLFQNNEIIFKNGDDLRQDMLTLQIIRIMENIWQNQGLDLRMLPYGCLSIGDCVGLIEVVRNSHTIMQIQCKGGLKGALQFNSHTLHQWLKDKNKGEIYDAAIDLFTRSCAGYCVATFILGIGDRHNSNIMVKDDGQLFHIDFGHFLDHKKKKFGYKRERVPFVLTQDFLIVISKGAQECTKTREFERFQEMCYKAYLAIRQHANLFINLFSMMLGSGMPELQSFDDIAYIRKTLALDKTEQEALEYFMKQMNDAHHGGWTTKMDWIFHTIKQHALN

Sequence of Phosphatidylinositol 4,5-bisphosphate 3-kinase catalytic subunit beta isoform (P42338 whole entry, canonical isoform): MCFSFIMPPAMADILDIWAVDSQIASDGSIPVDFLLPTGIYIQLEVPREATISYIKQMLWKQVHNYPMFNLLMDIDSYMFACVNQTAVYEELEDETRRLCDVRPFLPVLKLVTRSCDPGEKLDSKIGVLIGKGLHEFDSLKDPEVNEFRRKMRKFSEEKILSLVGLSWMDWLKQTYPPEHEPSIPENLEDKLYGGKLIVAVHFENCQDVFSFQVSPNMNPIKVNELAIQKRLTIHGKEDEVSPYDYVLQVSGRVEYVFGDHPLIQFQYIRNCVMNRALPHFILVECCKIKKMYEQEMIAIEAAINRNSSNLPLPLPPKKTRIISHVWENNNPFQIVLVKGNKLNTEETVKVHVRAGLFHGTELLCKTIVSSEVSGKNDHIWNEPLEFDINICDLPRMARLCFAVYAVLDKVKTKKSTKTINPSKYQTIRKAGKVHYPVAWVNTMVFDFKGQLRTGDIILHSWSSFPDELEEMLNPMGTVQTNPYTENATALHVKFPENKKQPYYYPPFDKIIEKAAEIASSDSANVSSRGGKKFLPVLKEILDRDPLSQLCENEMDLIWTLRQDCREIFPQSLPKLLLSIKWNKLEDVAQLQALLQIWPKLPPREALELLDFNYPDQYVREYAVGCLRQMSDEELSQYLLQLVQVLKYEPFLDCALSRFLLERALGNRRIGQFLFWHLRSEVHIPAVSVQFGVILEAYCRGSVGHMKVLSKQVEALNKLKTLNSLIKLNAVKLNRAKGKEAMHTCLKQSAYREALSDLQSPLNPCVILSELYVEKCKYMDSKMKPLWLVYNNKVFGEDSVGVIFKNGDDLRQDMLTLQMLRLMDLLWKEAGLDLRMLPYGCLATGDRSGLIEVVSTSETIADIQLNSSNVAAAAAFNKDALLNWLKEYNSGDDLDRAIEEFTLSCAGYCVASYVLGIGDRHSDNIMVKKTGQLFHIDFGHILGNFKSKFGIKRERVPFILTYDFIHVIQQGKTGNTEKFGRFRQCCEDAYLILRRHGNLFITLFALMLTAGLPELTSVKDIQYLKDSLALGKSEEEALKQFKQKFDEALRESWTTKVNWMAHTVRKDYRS
Sequence of Phosphatidylinositol 4,5-bisphosphate 3-kinase catalytic subunit gamma isoform (P48736 whole entry, canonical isoform): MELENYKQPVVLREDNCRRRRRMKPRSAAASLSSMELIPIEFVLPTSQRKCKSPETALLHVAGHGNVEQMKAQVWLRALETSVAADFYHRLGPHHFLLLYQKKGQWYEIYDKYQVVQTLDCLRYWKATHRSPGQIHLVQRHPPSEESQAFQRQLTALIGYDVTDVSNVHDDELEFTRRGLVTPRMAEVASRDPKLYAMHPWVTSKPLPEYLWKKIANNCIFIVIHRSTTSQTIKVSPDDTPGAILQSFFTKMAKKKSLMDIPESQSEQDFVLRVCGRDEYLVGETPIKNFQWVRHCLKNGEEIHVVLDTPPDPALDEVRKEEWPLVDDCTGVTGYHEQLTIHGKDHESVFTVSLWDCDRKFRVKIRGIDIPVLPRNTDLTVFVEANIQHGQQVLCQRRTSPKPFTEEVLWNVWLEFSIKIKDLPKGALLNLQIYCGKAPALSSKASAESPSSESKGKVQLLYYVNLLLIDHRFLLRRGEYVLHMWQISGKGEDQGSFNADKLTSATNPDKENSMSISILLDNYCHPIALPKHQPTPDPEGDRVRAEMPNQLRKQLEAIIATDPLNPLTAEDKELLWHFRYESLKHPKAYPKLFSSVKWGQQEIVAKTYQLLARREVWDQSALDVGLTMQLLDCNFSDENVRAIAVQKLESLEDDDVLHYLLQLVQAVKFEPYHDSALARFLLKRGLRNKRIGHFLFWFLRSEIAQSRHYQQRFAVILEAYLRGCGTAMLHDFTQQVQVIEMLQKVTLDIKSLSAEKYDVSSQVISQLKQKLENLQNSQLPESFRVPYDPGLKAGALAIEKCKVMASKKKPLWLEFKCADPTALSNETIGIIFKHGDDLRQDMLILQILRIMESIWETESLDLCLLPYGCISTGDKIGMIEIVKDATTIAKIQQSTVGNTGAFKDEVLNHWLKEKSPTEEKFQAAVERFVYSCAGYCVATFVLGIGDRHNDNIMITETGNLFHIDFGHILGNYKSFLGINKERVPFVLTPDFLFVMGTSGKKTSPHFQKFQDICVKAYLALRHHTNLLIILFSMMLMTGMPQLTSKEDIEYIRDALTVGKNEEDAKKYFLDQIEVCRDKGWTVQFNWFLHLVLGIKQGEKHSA

## O=S(=O)(Nc1cc(-c2ccc3[nH]cnc3c2)cnc1Cl)c1ccccc1
[1]
  pIC50: 7.55

## CC[C@H](Nc1ncnc2[nH]cnc12)c1nc2cccc(F)c2c(=O)n1-c1ccccc1 [IDELALISIB]
[2]
  Activity: 18.2%
[3]
  Activity: 5.71%
[4]
  viability at 5 µM: 74.6%
[5]
  Activity: 32.8%
[6]
  Activity: 7.95%
[7]
  Activity: 10.1%
[8]
  Activity: 31.7%
[9]
  Activity: 14.8%
[10]
  Activity: 47.9%
[11]
  Activity: 3.44%
[12]
  Activity: 48.4%
[13]
  Activity: 12.4%
[14]
  viability at 1 µM: 77%
[15]
  Activity: 13.6%
[16]
  Activity: 0.5%
[17]
  Activity: 49.6%
[18]
  Activity: 13.9%
[19]
  viability at 2 µM: 73.2%
[20]
  Activity: 9.19%
[21]
  Activity: 13.9%
[22]
  Activity: 1.14%
[23]
  Activity: 1.49%
[24]
  Activity: 32.9%
[25]
  Activity: 2.6%

## O=S(=O)(Nc1cc(-c2ccc3[nH]ccc3c2)cnc1Cl)c1ccccc1
[1]
  pIC50: 6.48

## O=S(=O)(Nc1cc(-c2ccc3sccc3c2)cnc1Cl)c1ccccc1
[1]
  pIC50: 6.07

## O=S(=O)(Nc1cc(-c2ccc3occc3c2)cnc1Cl)c1ccccc1
[1]
  pIC50: 7.77

## O=S(=O)(Nc1cc(-c2cc3cn[nH]c3cn2)cnc1Cl)c1ccccc1
[1]
  pIC50: 6.28

## O=S(=O)(Nc1cc(-c2ccc3[nH]ncc3n2)cnc1Cl)c1ccccc1
[1]
  pIC50: 6.53

## O=S(=O)(Nc1cc(-c2cc3cc[nH]c3cn2)cnc1Cl)c1ccccc1
[1]
  pIC50: 5.88

## O=S(=O)(Nc1cc(-c2ccc3[nH]nnc3c2)cnc1Cl)c1ccccc1
[1]
  pIC50: 7.82

## O=S(=O)(Nc1cc(-c2ccc3c(c2)CCN3)cnc1Cl)c1ccccc1
[1]
  pIC50: 6.31

## O=S(=O)(Nc1cc(-c2ccc3ocnc3c2)cnc1Cl)c1ccccc1
[1]
  pIC50: 7.43

## O=S(=O)(Nc1cc(-c2ccc3scnc3c2)cnc1Cl)c1ccccc1
[1]
  pIC50: 6.22

## O=S(=O)(Nc1cc(-c2cnc3[nH]ccc3n2)cnc1Cl)c1ccccc1
[26]
  pIC50: 7.24
[27]
  pIC50: 7.10
[28]
  pIC50: 7.23
[1]
  pIC50: 7.31

## O=S(=O)(Nc1cc(-c2cnc3[nH]cnc3c2)cnc1Cl)c1ccccc1
[26]
  pIC50: 7.68
[27]
  pIC50: 7.59
[28]
  pIC50: 7.55
[1]
  pIC50: 7.80

## O=S(=O)(Nc1cc(-c2cnc3scnc3c2)cnc1Cl)c1ccccc1
[1]
  pIC50: 6.69

## O=S(=O)(Nc1cc(-c2cnc3occc3c2)cnc1Cl)c1ccccc1
[1]
  pIC50: 6.68

## O=S(=O)(Nc1cc(-c2ccc3[nH]ccc3n2)cnc1Cl)c1ccccc1
[1]
  pIC50: 5.51

## O=S(=O)(Nc1cc(-c2cnc3c(c2)CCN3)cnc1Cl)c1ccccc1
[1]
  pIC50: 6.91

## O=S(=O)(Nc1cc(-c2ccc3[nH]ncc3c2)cnc1Cl)c1ccccc1
[1]
  pIC50: 7.44
